Key:
[1] = target: Inhibitor of nuclear factor kappa-B kinase subunit alpha (Homo sapiens) (UniProt O15111); conditions: Compound concentration 1000.0 nM
[2] = target: Death-associated protein kinase 3 (Homo sapiens) (UniProt O43293); conditions: Compound concentration 1000.0 nM
[3] = target: Fibroblast growth factor receptor 4 (Homo sapiens) (UniProt P22455); conditions: Compound concentration 1000.0 nM
[4] = target: Calcium/calmodulin-dependent protein kinase type 1 (Homo sapiens) (UniProt Q14012); conditions: Compound concentration 1000.0 nM
[5] = target: Casein kinase I isoform gamma-3 (Homo sapiens) (UniProt Q9Y6M4); conditions: Compound concentration 1000.0 nM
[6] = target: Serine/threonine-protein kinase 4 (Homo sapiens) (UniProt Q13043); conditions: Compound concentration 1000.0 nM
[7] = test system: Epidermal growth factor receptor (Homo sapiens), P00533 [UNDEFINED MUTATION]; conditions: Compound concentration 1000.0 nM
[8] = test system: Epidermal growth factor receptor (Homo sapiens), P00533 [UNDEFINED MUTATION]; conditions: Compound concentration 1000.0 nM; remark: listed apart in the source
[9] = target: Hepatocyte growth factor receptor (Homo sapiens) (UniProt P08581); conditions: Compound concentration 1000.0 nM
[10] = target: Serine/threonine-protein kinase Sgk2 (Homo sapiens) (UniProt Q9HBY8); conditions: Compound concentration 1000.0 nM
[11] = target: Mitogen-activated protein kinase kinase kinase 3 (Homo sapiens) (UniProt Q99759); conditions: Compound concentration 1000.0 nM
[12] = target: AP2-associated protein kinase 1 (Homo sapiens) (UniProt Q2M2I8); conditions: Compound concentration 1000.0 nM
[13] = target: Mitogen-activated protein kinase 11 (Homo sapiens) (UniProt Q15759); conditions: Compound concentration 1000.0 nM
[14] = target: Muscarinic acetylcholine receptor M5 (Homo sapiens) (UniProt P08912); conditions: Compound concentration 10.0 uM
[15] = target: Serine/threonine-protein kinase RIO2 (Homo sapiens) (UniProt Q9BVS4); conditions: Compound concentration 1000.0 nM
[16] = target: Ribosomal protein S6 kinase alpha-1 (Homo sapiens) (UniProt Q15418); conditions: Compound concentration 1000.0 nM
[17] = target: 1-phosphatidylinositol 3-phosphate 5-kinase (Homo sapiens) (UniProt Q9Y2I7); conditions: Compound concentration 1000.0 nM
[18] = target: Serine/threonine-protein kinase Nek9 (Homo sapiens) (UniProt Q8TD19); conditions: Compound concentration 1000.0 nM
[19] = target: MAP kinase-interacting serine/threonine-protein kinase 1 (Homo sapiens) (UniProt Q9BUB5); conditions: Compound concentration 1000.0 nM
[20] = test system: Fibroblast growth factor receptor 3 (Homo sapiens), P22607 [G697C]; conditions: Compound concentration 1000.0 nM
[21] = target: Ephrin type-A receptor 4 (Homo sapiens) (UniProt P54764); conditions: Compound concentration 1000.0 nM
[22] = test system: Epidermal growth factor receptor (Homo sapiens), P00533 [G719S]; conditions: Compound concentration 1000.0 nM
[23] = target: Tyrosine-protein kinase Fer (Homo sapiens) (UniProt P16591); conditions: Compound concentration 1000.0 nM
[24] = target: Sodium-dependent noradrenaline transporter (Homo sapiens) (UniProt P23975); conditions: Compound concentration 10.0 uM
[25] = target: Leukocyte tyrosine kinase receptor (Homo sapiens) (UniProt P29376); conditions: Compound concentration 1000.0 nM
[26] = target: Kappa-type opioid receptor (Homo sapiens) (UniProt P41145); conditions: Compound concentration 10.0 uM
[27] = test system: Hepatocyte growth factor receptor (Homo sapiens), P08581 [M1250T]; conditions: Compound concentration 1000.0 nM
[28] = test system: Mast/stem cell growth factor receptor Kit (Homo sapiens), P10721 [A829P]; conditions: Compound concentration 1000.0 nM
[29] = target: Cyclin-dependent kinase 13 (Homo sapiens) (UniProt Q14004); conditions: Compound concentration 1000.0 nM
[30] = target: Ribosomal protein S6 kinase alpha-1 (Homo sapiens) (UniProt Q15418); conditions: Compound concentration 1000.0 nM; remark: listed apart in the source
[31] = target: Delta-type opioid receptor (Homo sapiens) (UniProt P41143); conditions: Compound concentration 10.0 uM
[32] = target: Serine/threonine-protein kinase TAO2 (Homo sapiens) (UniProt Q9UL54); conditions: Compound concentration 1000.0 nM
[33] = target: Insulin-like growth factor 1 receptor (Homo sapiens) (UniProt P08069); conditions: Compound concentration 1000.0 nM
[34] = target: Focal adhesion kinase 1 (Homo sapiens) (UniProt Q05397); conditions: Compound concentration 1000.0 nM
[35] = target: Glycogen synthase kinase-3 beta (Homo sapiens) (UniProt P49841); conditions: Compound concentration 1000.0 nM
[36] = target: Serine/threonine-protein kinase/endoribonuclease IRE1 (Homo sapiens) (UniProt O75460); conditions: Compound concentration 1000.0 nM
[37] = target: 5-hydroxytryptamine receptor 2B (Homo sapiens) (UniProt P41595); conditions: Compound concentration 10.0 uM
[38] = target: Calcium/calmodulin-dependent protein kinase type 1D (Homo sapiens) (UniProt Q8IU85); conditions: Compound concentration 1000.0 nM
[39] = target: Vascular endothelial growth factor receptor 2 (Homo sapiens) (UniProt P35968); conditions: Compound concentration 1000.0 nM
[40] = target: Uncharacterized serine/threonine-protein kinase SBK3 (Homo sapiens) (UniProt P0C264); conditions: Compound concentration 1000.0 nM
[41] = target: 3-phosphoinositide-dependent protein kinase 1 (Homo sapiens) (UniProt O15530); conditions: Compound concentration 1000.0 nM
[42] = target: Proto-oncogene tyrosine-protein kinase Src (Homo sapiens) (UniProt P12931); conditions: Compound concentration 1000.0 nM
[43] = target: Mitogen-activated protein kinase kinase kinase 4 (Homo sapiens) (UniProt Q9Y6R4); conditions: Compound concentration 1000.0 nM

Sequence of Ribosomal protein S6 kinase alpha-1 (Homo sapiens) (Q15418 whole entry): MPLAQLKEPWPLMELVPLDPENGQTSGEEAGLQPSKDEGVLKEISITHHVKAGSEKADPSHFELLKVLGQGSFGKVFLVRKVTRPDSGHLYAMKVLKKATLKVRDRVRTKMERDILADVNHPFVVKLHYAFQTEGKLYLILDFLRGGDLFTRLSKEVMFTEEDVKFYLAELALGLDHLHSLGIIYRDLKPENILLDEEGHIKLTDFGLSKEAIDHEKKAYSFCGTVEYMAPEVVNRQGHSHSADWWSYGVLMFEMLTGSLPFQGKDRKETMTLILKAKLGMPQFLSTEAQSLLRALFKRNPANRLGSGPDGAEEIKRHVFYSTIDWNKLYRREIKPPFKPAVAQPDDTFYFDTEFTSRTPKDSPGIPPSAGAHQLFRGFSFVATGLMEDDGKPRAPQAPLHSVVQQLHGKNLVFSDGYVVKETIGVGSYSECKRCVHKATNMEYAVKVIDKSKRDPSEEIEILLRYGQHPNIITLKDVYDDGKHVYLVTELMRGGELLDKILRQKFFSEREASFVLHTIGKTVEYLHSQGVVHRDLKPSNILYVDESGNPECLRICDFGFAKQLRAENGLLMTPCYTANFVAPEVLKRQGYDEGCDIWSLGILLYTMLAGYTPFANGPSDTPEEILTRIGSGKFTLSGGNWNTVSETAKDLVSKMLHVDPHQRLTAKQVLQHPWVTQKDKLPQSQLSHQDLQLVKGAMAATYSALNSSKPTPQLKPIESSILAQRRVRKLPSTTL
Sequence of Proto-oncogene tyrosine-protein kinase Src (Homo sapiens) (P12931 2-536 limits assumed): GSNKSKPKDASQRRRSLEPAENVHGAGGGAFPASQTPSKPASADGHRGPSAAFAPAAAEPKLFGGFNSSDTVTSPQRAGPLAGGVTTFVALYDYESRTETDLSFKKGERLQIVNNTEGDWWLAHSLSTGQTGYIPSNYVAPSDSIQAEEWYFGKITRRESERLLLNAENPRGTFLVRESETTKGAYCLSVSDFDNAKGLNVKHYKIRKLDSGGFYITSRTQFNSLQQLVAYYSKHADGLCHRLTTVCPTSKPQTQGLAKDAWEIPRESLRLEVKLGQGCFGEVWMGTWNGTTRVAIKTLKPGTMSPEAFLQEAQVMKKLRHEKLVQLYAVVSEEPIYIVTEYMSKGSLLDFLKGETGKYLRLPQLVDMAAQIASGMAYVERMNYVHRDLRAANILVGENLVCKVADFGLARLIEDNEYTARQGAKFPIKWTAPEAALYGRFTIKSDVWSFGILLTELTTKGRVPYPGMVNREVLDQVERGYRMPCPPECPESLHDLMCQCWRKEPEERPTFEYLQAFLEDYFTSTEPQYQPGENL
Sequence of Focal adhesion kinase 1 (Homo sapiens) (Q05397 2-1052 limits assumed): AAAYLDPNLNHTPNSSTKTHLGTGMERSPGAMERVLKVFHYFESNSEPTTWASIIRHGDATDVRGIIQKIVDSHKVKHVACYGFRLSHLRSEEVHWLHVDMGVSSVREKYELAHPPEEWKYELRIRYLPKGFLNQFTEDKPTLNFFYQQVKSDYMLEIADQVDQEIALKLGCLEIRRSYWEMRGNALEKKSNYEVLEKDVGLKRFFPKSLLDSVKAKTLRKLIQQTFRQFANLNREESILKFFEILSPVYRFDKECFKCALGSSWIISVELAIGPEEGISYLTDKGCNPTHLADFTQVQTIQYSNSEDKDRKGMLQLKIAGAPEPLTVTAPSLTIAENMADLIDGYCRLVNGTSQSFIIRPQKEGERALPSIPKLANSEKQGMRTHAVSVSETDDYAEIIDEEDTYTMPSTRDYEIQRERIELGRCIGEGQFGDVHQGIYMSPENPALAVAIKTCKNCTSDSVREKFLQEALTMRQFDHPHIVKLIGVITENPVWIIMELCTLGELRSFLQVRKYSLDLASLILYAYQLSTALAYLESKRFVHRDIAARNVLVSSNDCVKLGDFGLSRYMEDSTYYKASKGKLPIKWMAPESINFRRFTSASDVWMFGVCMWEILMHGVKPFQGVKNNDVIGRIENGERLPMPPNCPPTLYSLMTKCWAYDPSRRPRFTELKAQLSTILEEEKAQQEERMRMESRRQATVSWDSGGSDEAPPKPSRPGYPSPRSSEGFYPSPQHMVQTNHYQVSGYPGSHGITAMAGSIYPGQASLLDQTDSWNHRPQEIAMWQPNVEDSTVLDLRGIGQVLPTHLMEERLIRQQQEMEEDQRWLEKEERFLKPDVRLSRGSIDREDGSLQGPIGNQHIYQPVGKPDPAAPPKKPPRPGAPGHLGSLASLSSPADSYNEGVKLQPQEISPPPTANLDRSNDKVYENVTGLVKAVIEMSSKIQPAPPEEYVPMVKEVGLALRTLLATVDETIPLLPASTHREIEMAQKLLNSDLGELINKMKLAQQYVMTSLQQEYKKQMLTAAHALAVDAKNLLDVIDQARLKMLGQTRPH
Sequence of Tyrosine-protein kinase Fer (Homo sapiens) (P16591 whole entry, looked up): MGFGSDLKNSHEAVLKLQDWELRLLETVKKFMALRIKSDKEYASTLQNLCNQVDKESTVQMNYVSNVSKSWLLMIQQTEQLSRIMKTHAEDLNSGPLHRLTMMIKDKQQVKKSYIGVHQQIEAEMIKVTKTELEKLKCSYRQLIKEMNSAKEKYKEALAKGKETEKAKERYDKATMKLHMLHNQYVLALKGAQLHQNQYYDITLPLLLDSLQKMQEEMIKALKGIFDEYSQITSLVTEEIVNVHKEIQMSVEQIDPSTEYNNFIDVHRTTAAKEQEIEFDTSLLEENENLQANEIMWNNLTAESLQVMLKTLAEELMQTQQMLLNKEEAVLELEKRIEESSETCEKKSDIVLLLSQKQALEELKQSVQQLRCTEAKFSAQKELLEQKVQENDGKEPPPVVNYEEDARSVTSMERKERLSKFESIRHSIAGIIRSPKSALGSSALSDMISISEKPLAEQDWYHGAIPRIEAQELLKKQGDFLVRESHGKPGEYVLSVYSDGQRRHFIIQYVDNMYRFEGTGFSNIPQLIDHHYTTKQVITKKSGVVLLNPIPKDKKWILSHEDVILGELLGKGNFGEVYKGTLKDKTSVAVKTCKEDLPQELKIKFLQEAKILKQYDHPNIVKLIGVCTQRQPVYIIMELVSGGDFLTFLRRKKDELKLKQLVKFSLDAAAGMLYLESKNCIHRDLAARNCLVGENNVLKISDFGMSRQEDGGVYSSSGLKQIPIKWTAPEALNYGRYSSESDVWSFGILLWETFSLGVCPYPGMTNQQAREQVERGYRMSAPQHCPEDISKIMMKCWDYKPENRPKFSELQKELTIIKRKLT
Sequence of AP2-associated protein kinase 1 (Homo sapiens) (Q2M2I8 whole entry, looked up): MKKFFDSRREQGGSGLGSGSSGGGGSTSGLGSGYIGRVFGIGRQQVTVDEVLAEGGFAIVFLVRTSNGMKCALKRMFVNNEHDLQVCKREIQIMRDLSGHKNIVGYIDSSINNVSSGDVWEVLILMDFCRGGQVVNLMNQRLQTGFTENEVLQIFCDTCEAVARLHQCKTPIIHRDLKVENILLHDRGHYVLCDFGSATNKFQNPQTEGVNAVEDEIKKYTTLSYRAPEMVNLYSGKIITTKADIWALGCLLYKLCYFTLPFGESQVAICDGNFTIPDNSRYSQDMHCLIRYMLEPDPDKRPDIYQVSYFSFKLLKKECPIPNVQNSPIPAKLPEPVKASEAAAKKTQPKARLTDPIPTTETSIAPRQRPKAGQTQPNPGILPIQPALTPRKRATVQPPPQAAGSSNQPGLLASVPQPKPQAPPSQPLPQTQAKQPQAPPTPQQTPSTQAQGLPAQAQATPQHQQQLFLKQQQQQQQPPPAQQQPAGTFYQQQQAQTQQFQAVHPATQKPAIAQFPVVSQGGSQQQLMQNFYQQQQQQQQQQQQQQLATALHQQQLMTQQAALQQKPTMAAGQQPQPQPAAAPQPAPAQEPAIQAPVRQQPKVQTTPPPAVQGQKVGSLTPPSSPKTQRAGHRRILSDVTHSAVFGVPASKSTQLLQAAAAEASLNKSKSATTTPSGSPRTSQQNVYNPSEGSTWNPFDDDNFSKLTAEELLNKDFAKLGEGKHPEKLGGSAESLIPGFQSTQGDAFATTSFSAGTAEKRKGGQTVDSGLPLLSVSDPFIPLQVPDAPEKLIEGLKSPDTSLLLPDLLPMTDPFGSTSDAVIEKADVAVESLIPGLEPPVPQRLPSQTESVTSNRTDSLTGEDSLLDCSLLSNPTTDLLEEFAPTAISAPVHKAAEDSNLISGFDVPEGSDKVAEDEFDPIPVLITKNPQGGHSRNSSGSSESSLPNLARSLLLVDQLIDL
Sequence of Serine/threonine-protein kinase/endoribonuclease IRE1 (Homo sapiens) (O75460 19-977 limits assumed): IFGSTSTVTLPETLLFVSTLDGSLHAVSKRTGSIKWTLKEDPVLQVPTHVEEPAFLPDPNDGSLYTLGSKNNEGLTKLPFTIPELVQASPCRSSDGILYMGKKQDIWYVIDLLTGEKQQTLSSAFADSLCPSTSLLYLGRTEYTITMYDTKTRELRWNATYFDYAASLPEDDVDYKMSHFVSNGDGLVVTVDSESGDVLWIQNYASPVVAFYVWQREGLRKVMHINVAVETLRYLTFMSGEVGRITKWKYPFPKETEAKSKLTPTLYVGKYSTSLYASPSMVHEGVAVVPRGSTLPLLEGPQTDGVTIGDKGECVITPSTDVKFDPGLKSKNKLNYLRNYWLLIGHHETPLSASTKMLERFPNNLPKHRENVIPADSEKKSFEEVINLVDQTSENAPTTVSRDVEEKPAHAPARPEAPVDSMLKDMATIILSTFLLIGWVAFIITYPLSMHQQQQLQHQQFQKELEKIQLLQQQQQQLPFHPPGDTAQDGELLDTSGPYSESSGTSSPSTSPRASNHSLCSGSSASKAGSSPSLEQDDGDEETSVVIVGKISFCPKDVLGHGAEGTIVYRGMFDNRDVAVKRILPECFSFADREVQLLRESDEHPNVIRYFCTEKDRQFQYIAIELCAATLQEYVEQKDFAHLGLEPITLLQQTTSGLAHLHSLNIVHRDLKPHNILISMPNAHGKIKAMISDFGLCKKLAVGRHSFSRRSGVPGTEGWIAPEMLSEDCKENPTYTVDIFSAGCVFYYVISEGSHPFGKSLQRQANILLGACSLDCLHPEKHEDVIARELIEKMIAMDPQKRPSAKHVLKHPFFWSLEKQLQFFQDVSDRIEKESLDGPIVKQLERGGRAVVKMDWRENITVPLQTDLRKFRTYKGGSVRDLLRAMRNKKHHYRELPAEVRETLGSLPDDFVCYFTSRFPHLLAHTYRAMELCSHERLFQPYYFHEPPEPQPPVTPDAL

O=C(NC[C@@H]1[C@H]2CN(C(=O)OCc3cc(C(F)(F)F)cc(C(F)(F)F)c3)C[C@@H]12)c1ccc2[nH]nnc2c1 [BI 2545]
inactive: residual activity [1] 100% | residual activity [2] 94% | residual activity [3] 82% | residual activity [4] 77% | residual activity [5] 89% | residual activity [6] 100% | residual activity [7] 100% | residual activity [8] 72% | residual activity [9] 100% | residual activity [10] 66% | residual activity [11] 94% | residual activity [12] 96% | residual activity [13] 100% | inhibition [14] 15.3% | residual activity [15] 94% | residual activity [16] 94% | residual activity [17] 100% | residual activity [18] 77% | residual activity [19] 90% | residual activity [20] 92% | residual activity [21] 82% | residual activity [22] 100% | residual activity [23] 97% | inhibition [24] 15.5% | residual activity [25] 98% | inhibition [26] 27.8% | residual activity [27] 100% | residual activity [28] 100% | residual activity [29] 85% | residual activity [30] 83% | inhibition [31] 19.6% | residual activity [32] 86% | residual activity [33] 100% | residual activity [34] 100% | residual activity [35] 98% | residual activity [36] 77% | inhibition [37] 45.9% | residual activity [38] 100% | residual activity [39] 96% | residual activity [40] 100% | residual activity [41] 96% | residual activity [42] 100% | residual activity [43] 91%

Cc1nccc(COC(=O)N2C[C@@H]3[C@@H](CNC(=O)c4ccc5[nH]nnc5c4)[C@@H]3C2)n1 [BI 3017]
inactive: residual activity [1] 100% | residual activity [2] 92% | residual activity [3] 81% | residual activity [4] 93% | residual activity [5] 100% | residual activity [6] 100% | residual activity [7] 87% | residual activity [8] 100% | residual activity [9] 94% | residual activity [10] 100% | residual activity [11] 91% | residual activity [12] 100% | residual activity [13] 94% | inhibition [14] -9.7% | residual activity [15] 97% | residual activity [16] 98% | residual activity [17] 100% | residual activity [18] 100% | residual activity [19] 91% | residual activity [20] 97% | residual activity [21] 98% | residual activity [22] 100% | residual activity [23] 100% | inhibition [24] -7.15% | residual activity [25] 93% | inhibition [26] 9.47% | residual activity [27] 100% | residual activity [28] 94% | residual activity [29] 82% | residual activity [30] 96% | inhibition [31] -1.41% | residual activity [32] 91% | residual activity [33] 93% | residual activity [34] 100% | residual activity [35] 100% | residual activity [36] 90% | inhibition [37] 27.1% | residual activity [38] 100% | residual activity [39] 80% | residual activity [40] 54% | residual activity [41] 100% | residual activity [42] 100% | residual activity [43] 94%
